Reference: US9149038B2, “4-amino-6-(heterocyclic)picolinates and 6-amino-2-(heterocyclic)pyrimidine-4-carboxylates and their use as herbicides” (Dow AgroSciences LLC, priority 2013, dated 2015)
Where two headings read alike, the source gives them in different places.

Assays:
[1] = tested on: Key Broadleaf Weed and Crop Species; test: Post-Emergent Test II: postemergent herbicidal activity, visual rating after 14 d (Table 7); type: in vivo; details: post-emergence, 336 h; for pest or weed control at 35 g/ha: 35 g ai/ha; for pest or weed control at 70 g/ha: 70 g ai/ha; for pest or weed control at 140 g/ha: 140 g ai/ha
Procedure, shortened: (§1)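 Greenhouse-grown plants at the first or second true leaf stage (7-21 d, ~15 h photoperiod, 23-29° C day) were sprayed with compound in acetone/DMSO-based aqueous spray containing crop oil concentrate and Triton X-155 at 187 L/ha. Injury versus untreated plants was rated visually after 14 d on a 0-100 scale.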

[2] = tested on: Key Grass and Sedge Weeds as well as Grass Crops; test: Post-Emergent Test II: postemergent herbicidal activity, visual rating after 14 d (Table 8); type: in vivo; details: post-emergence, 336 h; for pest or weed control at 35 g/ha: 35 g ai/ha; for pest or weed control at 70 g/ha: 70 g ai/ha; for pest or weed control at 140 g/ha: 140 g ai/ha
Procedure, shortened: as §1

[3] = lambsquarters (Chenopodium album), read-out: Visual Growth Reduction (%) 14 Days After Application CHEAL
[4] = oilseed rape, canola (Brassica napus), read-out: Visual Growth Reduction (%) 14 Days After Application BRSNN
[5] = redroot pigweed (Amaranthus retroflexus), read-out: Visual Growth Reduction (%) 14 Days After Application AMARE
[6] = sunflower (Helianthus annuus), read-out: Visual Growth Reduction (%) 14 Days After Application HELAN
[7] = velvetleaf (Abutilon theophrasti), read-out: Visual Growth Reduction (%) 14 Days After Application ABUTH
[8] = wild poinsettia (Euphorbia heterophylla), read-out: Visual Growth Reduction (%) 14 Days After Application EPHHL
[9] = barnyardgrass (Echinochloa crus-galli), read-out: Visual Growth Reduction (%) 14 Days After Application ECHCG
[10] = giant foxtail (Setaria faberi), read-out: Visual Growth Reduction (%) 14 Days After Application SETFA
[11] = maize, corn (Zea mays), read-out: Visual Growth Reduction (%) 14 Days After Application ZEAMX
[12] = rice (Oryza sativa), read-out: Visual Growth Reduction (%) 14 Days After Application ORYSA
[13] = wheat, spring (Triticum aestivum), read-out: Visual Growth Reduction (%) 14 Days After Application TRZAS
[14] = yellow nutsedge (Cyperus esculentus), read-out: Visual Growth Reduction (%) 14 Days After Application CYPES

Compound	pest or weed control at 35 g/ha [1, 3] [%]	pest or weed control at 70 g/ha [1, 3] [%]	pest or weed control at 140 g/ha [1, 3] [%]	pest or weed control at 35 g/ha [1, 4] [%]	pest or weed control at 70 g/ha [1, 4] [%]	pest or weed control at 140 g/ha [1, 4] [%]	pest or weed control at 35 g/ha [1, 5] [%]	pest or weed control at 70 g/ha [1, 5] [%]	pest or weed control at 140 g/ha [1, 5] [%]	pest or weed control at 35 g/ha [1, 6] [%]	pest or weed control at 70 g/ha [1, 6] [%]	pest or weed control at 140 g/ha [1, 6] [%]	pest or weed control at 35 g/ha [1, 7] [%]	pest or weed control at 70 g/ha [1, 7] [%]	pest or weed control at 140 g/ha [1, 7] [%]	pest or weed control at 35 g/ha [1, 8] [%]	pest or weed control at 70 g/ha [1, 8] [%]	pest or weed control at 140 g/ha [1, 8] [%]	pest or weed control at 35 g/ha [2, 9] [%]	pest or weed control at 70 g/ha [2, 9] [%]	also measured
C=Cc1c(C(=O)O)nc(-c2ccc3c(c2)OC(F)(F)O3)c(F)c1N [Compound 30]	0 to 29	0 to 29	0 to 29	45 to 59	60 to 74	75 to 84	0 to 29	0 to 29	0 to 29	0 to 29	0 to 29	85 to 94	45 to 59	75 to 84	75 to 84	60 to 74	75 to 84	85 to 94	75 to 84	75 to 84	pest or weed control at 140 g/ha [2, 9]: 75 to 84%; pest or weed control at 35 g/ha [2, 10]: 0 to 29%; pest or weed control at 70 g/ha [2, 10]: 0 to 29%; pest or weed control at 140 g/ha [2, 10]: 0 to 29%; pest or weed control at 35 g/ha [2, 11]: 45 to 59%; pest or weed control at 70 g/ha [2, 11]: 60 to 74%; pest or weed control at 140 g/ha [2, 11]: 75 to 84%; pest or weed control at 35 g/ha [2, 12]: 0 to 29%; pest or weed control at 70 g/ha [2, 12]: 0 to 29%; pest or weed control at 140 g/ha [2, 12]: 0 to 29%; pest or weed control at 35 g/ha [2, 13]: 0 to 29%; pest or weed control at 70 g/ha [2, 13]: 0 to 29%; pest or weed control at 140 g/ha [2, 13]: 0 to 29%; pest or weed control at 35 g/ha [2, 14]: 0 to 29%; pest or weed control at 70 g/ha [2, 14]: 95 to 100%; pest or weed control at 140 g/ha [2, 14]: 95 to 100%
C=Cc1c(C(=O)OC)nc(-c2cc3c(cc2F)OCO3)c(F)c1N [Compound 31]	0 to 29	0 to 29	0 to 29	0 to 29	0 to 29	45 to 59	85 to 94	85 to 94	95 to 100	45 to 59	85 to 94	85 to 94	0 to 29	0 to 29	45 to 59	95 to 100	95 to 100	95 to 100	0 to 29	60 to 74	pest or weed control at 140 g/ha [2, 9]: 75 to 84%; pest or weed control at 35 g/ha [2, 10]: 0 to 29%; pest or weed control at 70 g/ha [2, 10]: 0 to 29%; pest or weed control at 140 g/ha [2, 10]: 0 to 29%; pest or weed control at 35 g/ha [2, 11]: 0 to 29%; pest or weed control at 70 g/ha [2, 11]: 30 to 44%; pest or weed control at 140 g/ha [2, 11]: 45 to 59%; pest or weed control at 35 g/ha [2, 12]: 0 to 29%; pest or weed control at 70 g/ha [2, 12]: 0 to 29%; pest or weed control at 140 g/ha [2, 12]: 0 to 29%; pest or weed control at 35 g/ha [2, 13]: 0 to 29%; pest or weed control at 70 g/ha [2, 13]: 0 to 29%; pest or weed control at 140 g/ha [2, 13]: 0 to 29%; pest or weed control at 35 g/ha [2, 14]: 0 to 29%; pest or weed control at 70 g/ha [2, 14]: 0 to 29%; pest or weed control at 140 g/ha [2, 14]: 0 to 29%
C=Cc1c(C(=O)OC)nc(-c2cc3c(cc2F)OC(F)(F)O3)c(F)c1N [Compound 27]	0 to 29	0 to 29	0 to 29	0 to 29	0 to 29	0 to 29	0 to 29	0 to 29	0 to 29	30 to 44	75 to 84	85 to 94	0 to 29	0 to 29	0 to 29	0 to 29	0 to 29	0 to 29	0 to 29	0 to 29	pest or weed control at 140 g/ha [2, 9]: 0 to 29%; pest or weed control at 35 g/ha [2, 10]: 0 to 29%; pest or weed control at 70 g/ha [2, 10]: 0 to 29%; pest or weed control at 140 g/ha [2, 10]: 0 to 29%; pest or weed control at 35 g/ha [2, 11]: 0 to 29%; pest or weed control at 70 g/ha [2, 11]: 0 to 29%; pest or weed control at 140 g/ha [2, 11]: 30 to 44%; pest or weed control at 35 g/ha [2, 12]: 0 to 29%; pest or weed control at 70 g/ha [2, 12]: 0 to 29%; pest or weed control at 140 g/ha [2, 12]: 0 to 29%; pest or weed control at 35 g/ha [2, 13]: 0 to 29%; pest or weed control at 70 g/ha [2, 13]: 0 to 29%; pest or weed control at 140 g/ha [2, 13]: 0 to 29%; pest or weed control at 35 g/ha [2, 14]: 0 to 29%; pest or weed control at 70 g/ha [2, 14]: 0 to 29%; pest or weed control at 140 g/ha [2, 14]: 0 to 29%
